Entries after “also recorded” stand apart in the source; their conditions may differ.
Key:
[1] = system: adult guinea pig LVCMs; format: cell-based
[2] = system: ACMs; format: cell-based, guinea pig

NC1=N[C@H](O)[C@H]2[C@H]3O[C@]4(O)O[C@@H]([C@@H](O)[C@@]2(N1)[C@@H]4O)[C@]3(O)CO [TTX, tetrodotoxin]
AP overshoot [1]: disappeared
change in phase 4 slope and MDP [1]: no statistical difference
cycle length [1]: 328 ± 23 ms
maximal upstroke velocity of AP [1]: 5.3±0.6 V/s
shift in TOP [1]: 17 mV

CC(=O)OCC[N+](C)(C)C [acetylcholine]
MDP [1]: −59.0±1.0 mV
cycle length [1]: 293 ± 16 ms
effect on spontaneous APs [1]: no effect
phase 4 slope [1]: 241±16 mV/s

CC(C)NCC(O)c1ccc(O)c(O)c1 (centres unmarked) [isoproterenol]
MDP [1]: −55.5±0.7 mV
TOP [1]: −45.2±0.4 mV
cycle length [1]: 182 ± 4.1 ms
increase in firing rate [1]: 27%
midpoint (V1/2) of steady-state activation [1]: −56.9±1.6 mV
phase 4 slope [1]: 350±12 mV/s

ZD7288
APD50 [1]: 272 ± 31 ms
effect of ZD7288 on induced If and AP firing [1]: blocked; also recorded: silenced
sensitivity of Ad-CGI-HCN1-induced If to HCN blocker [1]: sensitive
RMP [2]: −47.6±1.2 mV
effect of If suppression on firing [2]: triggered rhythmic firing; also recorded: generated AP

Reference: patent publication US20080089874A1, “DIRECTED DIFFERENTIATION AND MATURATION OF STEM CELL-DERIVED CARDIOMYOCYTES” (The Regents of the University of California, priority 2006, published 2008)
